These results are taken from patent US4962112A, “7-(2-methyl-4-aminopyrrolidinyl)naphthryidine and quinoline compounds” (Abbott Laboratories, priority 1988, dated 1990).

Values after ≈ are worked out from the molar mass of the structure shown. Where two headings read alike, the source gives them in different places.

A short description of data set [1]: Aqueous solubility in Ringer's buffer at pH 7.5 (HPLC). It counts as physicochemical. The protocol: A known excess weight of the compound was shaken overnight with a known volume of Ringer's buffer (bicarbonate buffer containing sodium, potassium, calcium and magnesium ions, initially adjusted to pH 7.5). The contents were filtered, and the clear filtrate was analyzed after appropriate dilution using HPLC (UV absorbance detection).

For data set [2], the system named is N. gonorrhoeae. Briefly: In vitro antibacterial activity, agar dilution MIC. As to conditions: Neisseria gonorrhoeae, 18 h. It counts as cell-based.
The subject of data set [3] is S. pyogenes. Briefly: In vitro antibacterial activity, agar dilution MIC. It counts as cell-based. As to conditions: Streptococcus pyogenes, 18 h, S. pyogenes M79061-98.
Data set [4] is described as follows: Oral pharmacokinetics, blood level by disk agar diffusion bioassay. It counts as in vivo, Mice. Conditions: for serum concentrations / blood levels (in words): versus analogs A and B at 100 mg/kg; for Blood Level of Compound: oral 100 mg/kg. As for the experimental part:
Mice were administered the quantity of compound indicated orally, as a single dose. At the specified time intervals, blood was collected from groups of five mice. All samples were assayed by a disk agar diffusion bioassay procedure. Bacillus subtilis 6633 or Klebsiella pneumoniae 10032 were used as the assay organisms, and seek agar medium No. 1 (BBL Microbiology Systems; Cockeysville, MD) was the growth medium. The plates were incubated at 32° C for 18 h and read with an image analyzer (Optomax Inc.).

For data set [5], the system named is E. faecalis. In words: In vitro antibacterial activity, agar dilution MIC. The data set is classed as cell-based. As to conditions: Enterococcus faecalis, 18 h.
Data set [6] concerns C. difficile. In words: In vitro antibacterial activity, agar dilution MIC. The data set is classed as cell-based. As to conditions: Clostridioides difficile.
Data set [7] relates to P. aeruginosa. Briefly: In vitro antibacterial activity, agar dilution MIC. It counts as cell-based. As to conditions: Pseudomonas aeruginosa, 18 h.
Data set [8] deals with L. pneumophila. In words: microbe, parasite or virus in culture. As to conditions: Legionella pneumophila. The data set is classed as cell-based.
In data set [9] the test system is P. mirabilis. In words: In vitro antibacterial activity, agar dilution MIC. As to conditions: Proteus mirabilis, 18 h. It counts as cell-based.
In data set [10] the test system is S. aureus. In words: In vitro antibacterial activity, agar dilution MIC. Conditions: Staphylococcus aureus. It counts as cell-based. The protocol: (§1) The in vitro antibacterial activity of the test compound was determined by conventional agar dilution procedures. The organisms were grown overnight in brain-heart infusion (BHI) broth (Difco 0037-01-6) at 36° C. Twofold dilutions of the stock solution ([…]) of the test compound were made in BHI agar obtain a test concentration ranging from […]. The plate was inoculated with approximately 10^4 organisms. It was then incubated at 36° C. for 18 h. the minimal inhibitory concentration was the lowest concentration of the test compound that yielded no visible growth on the plate.

The test system of data set [11] is L. bozemanni. In words: In vitro antibacterial activity, agar dilution MIC. As to conditions: 18 h; L. bozemanni ATCC 33217. The data set is classed as cell-based. As for the experimental part:
as §1

Data set [12] relates to H. influenza. In words: In vitro antibacterial activity, agar dilution MIC. It counts as cell-based. Conditions: 18 h. The protocol:
as §1

For data set [13], the system named is E. coli. Briefly: In vitro antibacterial activity, agar dilution MIC. Conditions: Escherichia coli. The data set is classed as cell-based. The protocol: as §1
Data set [14] relates to B. fragilis. In words: In vitro antibacterial activity, agar dilution MIC. The data set is classed as cell-based. As to conditions: Bacteroides fragilis.
Data set [15] deals with S. agalactiae. In words: In vitro antibacterial activity, agar dilution MIC. It counts as cell-based. Conditions: Streptococcus agalactiae, 18 h; S. agalactiae CMX 508 (Table 1).
The subject of data set [16] is K. pneumoniae. Briefly: In vitro antibacterial activity, agar dilution MIC. It counts as cell-based, Klebsiella pneumoniae.
The mark [17] stands for this setting: compared with 2-unsubstituted aminopyrrolidine analogs.
Setting [18] is: ATCC9689, 18 h, C. difficile ATCC 9689.
Setting [19] is: ATCC17857, 18 h, C. difficile ATCC 17857.
Setting [20] is: ATCC25923, 18 h, S. aureus ATCC 25923.
Where [21] appears, read: H. influenza 588A, read-out: MIC.
The mark [22] stands for this setting: ATCC25922, 18 h, E. coli ATCC 25922.
Where [23] appears, read: Klebsiella pneumoniae, 18 h, K. pneumoniae CMX 724A, read-out: MIC.

In [1] (at pH 7.5 in Ringer's buffer), `CC1CC(N)CN1c1nc2c(cc1F)c(=O)c(C(=O)O)cn2-c1ccc(F)cc1F` (stereo not drawn) [Epimer of Example 2] gave a solubility of 340 µg/mL (≈ 813 µM).
`CC1CC(N)CN1c1cc2c(cc1F)c(=O)c(C(=O)O)cn2-c1ccc(F)cc1F` (stereo not drawn) [Epimer of Example 6]: in [1] (at pH 7.5 in Ringer's buffer), the concentration in solution (solubility) came to 182 µg/mL (≈ 436 µM).
`C[C@H]1C[C@H](N)CN1c1nc2c(cc1F)c(=O)c(C(=O)O)cn2-c1ccc(F)cc1F` [Example 2, (2'S,4'S)-7-(4'-Amino-2'-methylpyrrolidin-1'-yl)-1-(o,p-difluorophenyl)-1,4-dihydro-6-fluoro-4-oxo-1,8-naphthyridine-3-Carboxylic Acid]: the MIC is 0.004 µg/mL (≈ 0.00956 µM) in data set [2] (N. gonorrhoeae 35F AMPI); 0.06 µg/mL (≈ 0.143 µM) in [2] (N. gonorrhoeae CMX 591); 0.25 µg/mL (≈ 0.598 µM) in [3]; 0.25 µg/mL (≈ 0.598 µM) in data set [5] (E. faecalis CMX 729G); 0.5 µg/mL (≈ 1.2 µM) in [5] (E. faecalis GYR 1166); 1 µg/mL (≈ 2.39 µM) in [6] (setting [18]). Further, the MIC came to 1 µg/mL (≈ 2.39 µM) in data set [6] (setting [19]); 0.5 µg/mL (≈ 1.2 µM) in data set [7] (P. aeruginosa A 5005); 0.5 µg/mL (≈ 1.2 µM) in data set [7] (P. aeruginosa CFS 350F); 0.5 µg/mL (≈ 1.2 µM) in data set [7] (P. aeruginosa CFS 387C); 2 µg/mL (≈ 4.78 µM) in data set [7] (P. aeruginosa CMX 719A); 0.25 µg/mL (≈ 0.598 µM) in data set [8] (18 h). In addition, the MIC worked out at 0.25 µg/mL (≈ 0.598 µM) in data set [8] (ATCC33152, 18 h); 0.25 µg/mL (≈ 0.598 µM) in data set [9] (P. mirabilis CMX 704F); 0.25 µg/mL (≈ 0.598 µM) in [9] (P. mirabilis CMX 729B); 0.03 µg/mL (≈ 0.0717 µM) in data set [10] (18 h, S. aureus CMX 705); 0.03 µg/mL (≈ 0.0717 µM) in [10] (18 h, S. aureus CMX 730A); 0.03 µg/mL (≈ 0.0717 µM) in [10] (18 h, S. aureus GYR 1162). Besides, the MIC was 0.06 µg/mL (≈ 0.143 µM) in [10] (setting [20]); 0.25 µg/mL (≈ 0.598 µM) in data set [11]; 0.008 µg/mL (≈ 0.0191 µM) in [12] (H. influenza 504); 0.008 µg/mL (≈ 0.0191 µM) in [12] (H. influenza 519A); 0.008 µg/mL (≈ 0.0191 µM) in data set [12] (H. influenza 566A); 0.008 µg/mL (≈ 0.0191 µM) in [12] (setting [21]). In addition, the MIC in data set [13] (18 h, E. coli CMX 733) was determined as 0.03 µg/mL (≈ 0.0717 µM); in data set [13] (18 h, E. coli CMX 744A), 0.03 µg/mL (≈ 0.0717 µM); in data set [13] (18 h, E. coli CMX 756), 0.03 µg/mL (≈ 0.0717 µM); in data set [13] (setting [22]) it was 0.03 µg/mL (≈ 0.0717 µM); in data set [14] (18 h, B. fragilis AT25285), 0.5 µg/mL (≈ 1.2 µM); in [14] (UC2, 18 h, B. fragilis UC-2) it was 0.5 µg/mL (≈ 1.2 µM). Moreover, the MIC is 0.12 µg/mL (≈ 0.287 µM) in data set [15], 0.06 MCG/ML in [16] (K. pneumoniae CMX 735A) and 0.06 µg/mL (≈ 0.143 µM) in data set [16] (setting [23]). In addition, the “AQUEOUS SOLUBILITY” value in [1] (at pH 7.5 in Ringer's buffer) was 0.15 mg/mL. Moreover, the “solubility properties (in words)” value in data set [1] (setting [17]) is on record as “significantly improved aqueous solubility properties”. Also, in data set [4] (setting [17]), the “oral absorption properties (in words)” value is recorded as “greatly improved oral absorption properties”. The concentration at 0.5 h in data set [4] (mouse, blood, mice, oral 25 mg/kg, t = 0.5 h, read-out: Blood Level of Compound) is 5900 ng/mL. For the same molecule, the concentration at 1 h in data set [4] (mouse, blood, mice, oral 25 mg/kg, t = 1.0 h, read-out: Blood Level of Compound) was determined as 3200 ng/mL. For the same molecule, the concentration at 2 h in data set [4] (mouse, blood, mice, oral 25 mg/kg, t = 2.0 h, read-out: Blood Level of Compound) is 3300 ng/mL. Further, the concentration at 3 h in [4] (mouse, blood, mice, oral 25 mg/kg, t = 3.0 h, read-out: Blood Level of Compound) is 2800 ng/mL. For the same molecule, the concentration at 6 h in [4] (mouse, blood, mice, oral 25 mg/kg, t = 6.0 h, read-out: Blood Level of Compound) was 1300 ng/mL. Moreover, in [4] (mouse, blood, mice, oral 25 mg/kg, t = 24.0 h, read-out: Blood Level of Compound), the concentration at 24 h amounted to 200 ng/mL. Moreover, the “serum concentrations / blood levels (in words)” value in [4] (oral 25 mg/kg) is “still achieve better blood”; in data set [4] (oral 25 mg/kg, listed as Compound 2), “higher serum concentrations”.
Take `NC1CCN(c2nc3c(cc2F)c(=O)c(C(=O)O)cn3-c2ccc(F)cc2F)C1` (stereo not drawn) [Example A, 7-(3-Amino-pyrrolidin-1-yl)-1-(2,4-difluorophenyl)-1,4-dihydro-6-fluoro--oxo-1,8-naphthyridine-3-carboxylic acid, reference compound]: the MIC in data set [2] (N. gonorrhoeae 35F AMPI) was 0.004 µg/mL (≈ 0.00989 µM); in data set [2] (N. gonorrhoeae CMX 591), 0.06 µg/mL (≈ 0.148 µM); in [3] it was 0.25 µg/mL (≈ 0.618 µM); in [5] (E. faecalis CMX 729G) it was 0.25 µg/mL (≈ 0.618 µM); in [5] (E. faecalis GYR 1166) it was 0.5 µg/mL (≈ 1.24 µM); in data set [6] (setting [18]), 1.6 µg/mL (≈ 3.96 µM). Further, the MIC was determined as 0.8 µg/mL (≈ 1.98 µM) in data set [6] (setting [19]); 0.5 µg/mL (≈ 1.24 µM) in data set [7] (P. aeruginosa A 5005); 0.5 µg/mL (≈ 1.24 µM) in data set [7] (P. aeruginosa CFS 350F); 1 µg/mL (≈ 2.47 µM) in data set [7] (P. aeruginosa CFS 387C); 2 µg/mL (≈ 4.95 µM) in data set [7] (P. aeruginosa CMX 719A); 0.25 µg/mL (≈ 0.618 µM) in data set [8] (18 h). Also, the MIC in data set [8] (ATCC33152, 18 h) worked out at 0.25 µg/mL (≈ 0.618 µM); in data set [9] (P. mirabilis CMX 704F), 0.25 µg/mL (≈ 0.618 µM); in data set [9] (P. mirabilis CMX 729B), 0.12 µg/mL (≈ 0.297 µM); in data set [10] (18 h, S. aureus CMX 705) it was 0.03 µg/mL (≈ 0.0742 µM); in [10] (18 h, S. aureus CMX 730A), 0.03 µg/mL (≈ 0.0742 µM); in [10] (18 h, S. aureus GYR 1162), 0.03 µg/mL (≈ 0.0742 µM). Besides, the MIC in [10] (setting [20]) worked out at 0.03 µg/mL (≈ 0.0742 µM); in data set [11], 0.5 µg/mL (≈ 1.24 µM); in data set [12] (H. influenza 504), 0.15 µg/mL (≈ 0.371 µM); in [12] (H. influenza 519A) it was 0.15 µg/mL (≈ 0.371 µM); in [12] (H. influenza 566A) it was 0.15 µg/mL (≈ 0.371 µM); in data set [12] (setting [21]), 0.008 µg/mL (≈ 0.0198 µM). Further, the MIC worked out at 0.03 µg/mL (≈ 0.0742 µM) in data set [13] (18 h, E. coli CMX 733); 0.03 µg/mL (≈ 0.0742 µM) in data set [13] (18 h, E. coli CMX 744A); 0.03 µg/mL (≈ 0.0742 µM) in [13] (18 h, E. coli CMX 756); 0.03 µg/mL (≈ 0.0742 µM) in data set [13] (setting [22]); 0.4 µg/mL (≈ 0.989 µM) in data set [14] (18 h, B. fragilis AT25285); 0.8 µg/mL (≈ 1.98 µM) in data set [14] (UC2, 18 h, B. fragilis UC-2). Besides, the MIC was 0.12 µg/mL (≈ 0.297 µM) in data set [15], 0.06 MCG/ML in data set [16] (K. pneumoniae CMX 735A) and 0.06 µg/mL (≈ 0.148 µM) in [16] (setting [23]). The molecule further yielded a solubility in data set [1] (at pH 7.5 in Ringer's buffer) of 8 µg/mL (≈ 19.8 µM). Further, the “Blood Level of Compound” value is 2300 ng/mL in data set [4] (mice, t = 1.0 h); 1700 ng/mL in [4] (mice, t = 2.0 h); 1700 ng/mL in data set [4] (mice, t = 3.0 h); 900 ng/mL in [4] (mice, t = 6.0 h).
